# Experimental data from article PMC8619001, “Discovery of New Ginsenol-Like Compounds with High Antiviral Activity” (Molecules, 2021).
# Tested on: A/Vladivostok/2/2009 (H1N1)
# Assay: microbe, parasite or virus in culture
# Format: cell-based
# Details: Influenza A virus, H1N1, MDCK, 72 h, read-out: IC50 H1N1
structure (smiles),measurement,value
"CC(=O)NC12CC(C)(C)C3CCC1(C)CCCC32C [Compound 1a, (1S,3aR,4R,7aS)-N-(2,2,4,7a-tetramethyloctahydro-1,4-etanoinden-3a-yl)-acetamide]",IC50,380 ± 51 nM
